Experimental data taken from patent publication US20250367106A1, “Topical Formulation for Improving Skin Quality and Inducing the Release of Oxytocin” (OX Technology IP LLC, priority 2024, published 2025).

Experiment: ratings of trustworthiness and attractiveness of unfamiliar faces (FIG. 3)
Format: in vivo, human
Settings: people under the influence of the hormone compared to control groups who were not
From the text: As has been explained, the first set 14 of active ingredients create a reaction in the body that induces the production of hormones and/or pheromones. Hormones, such as oxytocin and its kind promote improved social behavior and enhances positive social perceptions of others. […] Oxytocin also masks negative personality perceptions that masculinized faces tend to elicit.

**Q.** Which “ratings of "trustworthiness" and "attractiveness" of unfamiliar faces” value does the source give for `CC[C@H](C)[C@@H]1NC(=O)[C@H](Cc2ccc(O)cc2)NC(=O)[C@@H](N)CSSC[C@@H](C(=O)N2CCC[C@H]2C(=O)N[C@@H](CC(C)C)C(=O)NCC(N)=O)NC(=O)[C@H](CC(N)=O)NC(=O)[C@H](CCC(N)=O)NC1=O` [oxytocin] here?
**A.** higher ratings
